The test system of test [1] is coffee plant rust. Kind of test: Coffee plant rust: compositions applied to coffee plant leaves, degree and severity of infection observed later (Example 1). The class given is in vivo, Hemileia vastatrix. As to conditions: applied alone. Here is the method: The effect of application of a TTO-containing composition (Timorex Gold®), alone and in combination with tebuconazole (simultaneous and in alternation), on coffee plant rust, was tested, by applying the compositions to coffee plant leaves and observing the degree and severity of infection later.

The test system of test [2] is rust in green onions. Kind of test: Control of rust in organically grown green onions, field spray trial (Example 3). It is filed as in vivo, Puccinia alli. As to conditions: 2.5 g/l. Here is the method:
(§1) Treatments were applied in a randomized complete block, with 5 replications per treatment. Plot size in each instance was of 6 m length, containing 20 plants. Fungicidal treatment was applied using backpack sprayer equipped with a mist blower (STHIL 340) to spray a volume of 300 liter/ha. Disease severity was evaluated by determining the leaf area covered with rust (disease severity) on each of 20 leaves randomly selected per each replicate. To analyze the results, an arc-sin transformation was performed on the raw data, and analysis of variance (ANOVA) using the SAS GLM procedure was applied to the transformed data. The Tukey-Kramer Test was applied to determine whether differences between treatments were significant. In the tables, “a”, “b” and “c”, refer to differences in statistical analysis that are familiar to users of the Tukey-Kramer test.
In a manner similar to that in Example 2, the effect of TG and the copper hydroxide solution were tested on organically grown green onions, by application at a rate of 500 l/ha.

Test [3] deals with rust in garlic plants. The experiment in a line: Control of rust in organically grown garlic plants, field spray trial (Example 2). It is filed as in vivo, Puccinia alli. As to conditions: 0.25%. Here is the method: Organically grown garlic plants were treated with a 53.8% copper hydroxide solution, Timorex Gold, or a mixture of the two. The plants were sprayed six times, on the first day of the trial and then approximately every six days thereafter. Observations were made on days 1 (before spraying), 29 and 40 of the trial. The results are shown in the table below; d.a.a.=days after application; numbers are presented as % of disease severity on leaves. The effectiveness may have been comprised by the relatively large amount of rain that fell during the trial.
as §1

[4] abbreviates: 4th evaluation, 1 day after 5th treatment.
[5] abbreviates: 5th evaluation, on day of 7th treatment.
Setting [6] is: 6th evaluation, 7 days after 7th treatment.
Where [7] appears, read: second evaluation, 2 days after second treatment.
[8] abbreviates: third evaluation, on day of fourth treatment.

Turning to `CC(C)(C)C(O)(CCc1ccc(Cl)cc1)Cn1cncn1` (stereo not drawn) [tebuconazole], the “retention of leaves by the plants” value in test [1] is listed as “higher retention of leaves”. Moreover, the “severity of the disease” value in test [1] (coffee plants) is on record as “overall lower severity of the disease”.
Take `[Cu+2].[OH-].[OH-]` [Copper hydroxide, copper hydroxide]: the “% area infected by rust” value in test [2] (setting [4]) stood at 8.5 b %; in test [2] (setting [5]) it was 12.5 b %; in test [2] (setting [6]), 18.7 b %; in test [2] (first evaluation, before treatment) it was 0.3 a %; in test [2] (setting [7]), 1.8 ab %; in test [2] (setting [8]), 2.5 b %. Further, the “Efficacy of treatment, %” value is listed as 70.3% in test [2] (setting [4]); 76.9% in test [2] (setting [5]); 75.1% in test [2] (setting [6]); 62.1% in test [2] (setting [7]); 79.2% in test [2] (setting [8]). In test [3] (40 d.a.a.), the “40 d.a.a. % green relative to control” value is listed as 206.1%. For the same molecule, in test [3] (40 d.a.a.), the “40 d.a.a.: % green” value worked out at 60.0 a %. For the same molecule, in test [3] (baseline before spraying), the “Day 0 % of infected area” value came to 0.2 a %. Besides, in test [3] (six days after fifth application), the “Effectiveness in eradicating relative to control” value is reported as 53.0. Further, the “% of infected area” value in test [3] (six days after fifth application, 300 liter/ha) was 27.0 b %.

Values taken from patent US20160037782A1, “COMBINATIONS OF ANTIFUNGAL COMPOUNDS AND TEA TREE OIL” (priority 2011, published 2016).
